This is an account of results in patent US11426402B2, “IRE1 activating compounds for use in therapy” (The Scripps Research Institute, priority 2019, dated 2022).

The subject of the experiment is SHSY5Y cells. The experiment can be described thus: CellTiterGlo ATP levels in SHSY5Y cells overexpressing APP SW. The settings on record: APP SW overexpressing cells cultured in galactose, 10 μM, 72 hours. The experiment is classed as cell-based. The method, then:
FIGS. 6A-6C. Histograms showing TMRE staining of SH-SY5Y cells transiently expressing empty vector (Mock) or Swedish mutant APP in the presence or absence of 474 (10 μM) for 72 hours (FIG. 6A). Quantification of TMRE staining in (A). Error bars represent SEM for n=3 replicates. Statistics calculated from one-tailed Student's t-test. *p<0.05, **p<0.01, ***p<0.001 (FIG. 613). Graph showing relative luminescence from CellTiterGlo assay of SH-SY5Y cells transiently expressing empty vector or Swedish mutant APP cultured in galactose media for 72 hours in the presence or absence of IRE1 activator 474 (10 μM). Error bars represent SEM for n=3 replicates. Statistics calculated from one-tailed Student's t-test. *p<0.05, **p<0.01, ***p<0.001 (FIG. 6C).
For determination of relative cellular ATP levels, SHSY5Y cells were seeded into flat black, poly-D-lysine coated 96-well plates (Corning). […] Luminescence was then measured in an Infinite F200 PRO plate reader (Tecan and corrected for background signal. All measurements were performed in biologic triplicate.
Mitochondrial depolarization decreases the capacity for cells to produce ATP through oxidative phosphorylation at the inner mitochondrial membrane. […] Accordingly, ATP levels were monitored in SHSY5Y cells overexpressing APP^SW and incubated in media that was supplemented with glucose or galactose. […]
On the technique in general: Cellular ATP, detected with luciferase, serves as a proxy for viable cell number.

Consider `Cc1ccc(OCCN(C)C(=O)Cn2cc(NC(=O)CCOc3ccccc3)cn2)cc1` [Compound 474], for which the ATP levels entry was “increased”.
